We go through 3 molecules from patent US20050054673A1, “Combination of phenylcarboxylic acid amides with beta-adrenoreceptor blockers and their use for the treatment of atrial arrhythmias” (Aventis Pharma Deutschland GmbH, priority 2003, published 2005).

Marks after values point to notes of the source that are not given here.

This test has as its system left atrium of the pig. In words: Refractory period in anaesthetized pigs (AERP, left atrium). In kind it is in vivo. As to conditions: for Increase after Example 1 in ms: infusion 3 mg/kg/h, vs. control; for Effect on the refractory period (in words): single substances, Example 1 or 5 after 1 h infusion of 3 mg/kg/h. The protocol: Investigation of the refractory period in anaesthetized pigs
The investigations were carried out in the anaesthetised pig as described by Knobloch et al. (Knobloch K., Brendel J., Peukert S., Rosenstein B., Busch A.-E., Wirth K.-J., “Electrophysiological and antiarrhythmic effects of the novel IKUR channel blockers, S9947 and S20951, on the left vs. right pig atrium in vivo in comparison with the IKr blockers dofetilide, azimilide, d, I-sotalol and ibutilide”, Naunyn-Schmiedeberg's Arch Pharmacol 2002, 366: 482-487). The action of beta-blockers and IKUR blockers on the refractory period of the left atrium was investigated. First, the action of the individual substances was tested, then the action of the combination of both individual substances.
Male pigs of native German breed of age 2-3 months and weight 23-30 kg were used.
The pigs were premedicated with 3 mL of Rompun® 2% ([…] 23.3 mg/mL=3 mg/kg; injected intramuscularly) and 6 mL of Hostaket® (ketamine 115 mg/mL=20 mg/kg; injected intramuscularly). Anesthesia was induced using an intravenous bolus injection of 5 mL of Narcoren® (pentobarbital 160 mg/mL=25-30 mg/kg; i.v.) and continuously supplied intravenously by means of a pentobarbital perfusor at 12-17 mg/kg/h. After tracheotomy and intubation, the animals were ventilated with oxygen by means of a respirator. A left-lateral thoracotomy was carried out in the fifth intercostal space. The lungs were retracted using sutures, the pericardium was opened and held using sutures so that the heart rocked in this. The tip of a MAP Pacing™ electrophysiology catheter (EP Technologies, Model 1675, Boston Scientific Corporation, 92257 La Garenne-Colombes Cedex, France) were then placed on the free wall of the left atrium in a right-angled position and fixed to the left atrium under constant pressure in a stand. The electrical stimulation was carried out using an external heart stimulator from Biotronik (UHS 20, Universal heart stimulator, Biotronik GmbH, 12359 Berlin, Germany).
Measurement of the atrial effective refractory period (AERP): The electrical atrial response to the external pacemaker stimulation was visualized by means of a mono phasic action potential (MAP), which was derived from the left atrium by means of the electrophysiology catheter. A conditioning stimulation cycle of 10 base intervals (S1) in a double stimulation amplitude followed a diastolic, prematurely coupled extrastimulus (S2, 1 ms pulse duration, 200 ms refractory period), which originated during a 5 ms decrement of a coupling interval, which was 30 ms above the expected effective refractory period (AERP). The 5 mS decrement in the coupling interval of the extrastimulus ran until the atrium no longer produced any response in the form of an action potential. The longest coupling interval which was no longer able to induce any atrial action potential was used as the effective refractory period. The refractory period was in each case investigated at three basal cycle length, 240, 300 and 400 ms).
Experimental groups: The sole action of atenolol (bolus administration of 1 mg/kg) on the refractory period was investigated in a separate group of pigs (n=5).

Where [1] appears, read: basal cycle length 240 ms, atenolol 1 mg/kg bolus i.v., n = 5.
Setting [2] is: basal cycle length 300 ms, atenolol 1 mg/kg bolus i.v., n = 5.
Where [3] appears, read: basal cycle length 400 ms, atenolol 1 mg/kg bolus i.v., n = 5.

Take `COc1ccc(CC(=O)NCc2ccccc2-c2ccccc2C(=O)NCCc2cccnc2)cc1` [Example 1, 2′-{[2-(4-Methoxyphenyl)acetylamino]methyl}biphenyl-2-carboxylic acid (2-pyridin-3-ylethyl)amide]: the “Effect on the refractory period (in words)” value was “increased to a stable level”. For the same molecule, the “Refractory period, mean value” (basal cycle length 240 ms, Example 1 infused 3 mg/kg/h, after 1 h atenolol 1 mg/kg bolus, n = 6) worked out at 136 milliseconds. The “Increase after Example 1 in ms” value (basal cycle length 240 ms, n = 6) is recorded as 35^# ms. In addition, under “basal cycle length 300 ms, Example 1 infused 3 mg/kg/h, after 1 h atenolol 1 mg/kg bolus, n = 6”, the “Refractory period, mean value” is on record as 149.5 milliseconds. Besides, under “basal cycle length 300 ms, n = 6”, the “Increase after Example 1 in ms” value is given as 40.7^# ms. Besides, under “basal cycle length 400 ms, Example 1 infused 3 mg/kg/h, after 1 h atenolol 1 mg/kg bolus, n = 6”, the “Refractory period, mean value” is given as 166.2 milliseconds. Under “basal cycle length 400 ms, n = 6”, the “Increase after Example 1 in ms” value is reported as 52.3^# ms.
As for `CC(C)NCC(O)COc1ccc(CC(N)=O)cc1` (centres unmarked) [Atenolol, atenolol, reference compound], the “Increase in ms of refractory period vs. control” value was 25* ms under setting [1], 21* ms under setting [2] and 11* ms under setting [3]. For the same molecule, the “Refractory period, mean value” runs as follows: under setting [1], 136 milliseconds; under setting [2], 129 milliseconds; under setting [3], 129 milliseconds.
On to `CCCCS(=O)(=O)Nc1ccccc1C(=O)N[C@H](CC)c1ccc(OC)nc1` [Example 5, 2-(Butyl-1-sulfonylamino)-N-[1(R)-(6-methoxypyridin-3-yl)-propyl]benzamide], for which the “Effect on the refractory period (in words)” value is listed as “increased to a stable level”.
